Series [1] can be described thus: Biodistribution in C57BL/6 mouse lung at 3 nmol/g, iv measured after 90 mins post injection by fluorescence based analysis. The format is ADME, organism-based. Particulars: in vivo, 1.5 h.
Series [2] in a line: Biodistribution in C57BL/6 mouse spleen at 3 nmol/g, iv measured after 90 mins post injection by fluorescence based analysis. Format: ADME, organism-based. To be noted: in vivo, 1.5 h.
A short description of series [3]: Biodistribution in C57BL/6 mouse liver at 3 nmol/g, iv measured after 90 mins post injection by fluorescence based analysis. The format is ADME, organism-based. To be noted: in vivo, 1.5 h.
Series [4] in a line: Biodistribution in C57BL/6 mouse lung at 3 nmol/g, iv measured after 24 hrs post injection by fluorescence based analysis. Format: ADME, organism-based. Particulars: in vivo.
The nature of series [5]: Biodistribution in C57BL/6 mouse heart at 3 nmol/g, iv measured after 90 mins post injection by fluorescence based analysis. Format: ADME, organism-based. To be noted: in vivo, 1.5 h.
Series [6] can be described thus: Biodistribution in C57BL/6 mouse spleen at 3 nmol/g, iv measured after 24 hrs post injection by fluorescence based analysis. The format is ADME, organism-based. To be noted: in vivo.
Series [7] in a line: Biodistribution in C57BL/6 mouse brain at 3 nmol/g, iv measured after 90 mins post injection by fluorescence based analysis. The format is ADME, organism-based. Particulars: in vivo, 1.5 h.
A short description of series [8]: Biodistribution in C57BL/6 mouse kidney at 3 nmol/g, iv measured after 90 mins post injection by fluorescence based analysis. Particulars: in vivo, 1.5 h. Format: ADME, organism-based.
Series [9] relates to Neuron. The series is described as follows: Neuroprotective activity against NMDA-induced cell death in mouse primary neuron assessed as cell viability at 1 nM preincubated with compound for 1 hrs followed by NMDA addition and measured after 1 hrs by PI staining based analysis relative to control. To be noted: time 2 hrs, read-out: Activity. The format is functional.
Series [10] in a line: Toxicity in C57BL/6 mouse assessed as histological changes in spleen at 3 nmol/g, iv administered 3 consecutive days by H and E staining based analysis. Format: organism-based. To be noted: in vivo.
Series [11] in a line: Toxicity in C57BL/6 mouse assessed as histological changes in lung at 3 nmol/g, iv administered 3 consecutive days by H and E staining based analysis. The format is organism-based. To be noted: in vivo.
Series [12] is described as follows: Biodistribution in C57BL/6 mouse spleen at 3 nmol/g, iv measured after 24 hrs post injection using Cy7 labelled compound by fluorescence based analysis. The format is ADME, organism-based. Particulars: in vivo.
The target of the next series is Disks large homolog 4 (Homo sapiens, UniProt P78352). The series is described as follows: Binding affinity to PSD-95 (unknown origin) assessed as binding constant (Kd) by MST analysis.
Disks large homolog 4, sequence (P78352 whole entry): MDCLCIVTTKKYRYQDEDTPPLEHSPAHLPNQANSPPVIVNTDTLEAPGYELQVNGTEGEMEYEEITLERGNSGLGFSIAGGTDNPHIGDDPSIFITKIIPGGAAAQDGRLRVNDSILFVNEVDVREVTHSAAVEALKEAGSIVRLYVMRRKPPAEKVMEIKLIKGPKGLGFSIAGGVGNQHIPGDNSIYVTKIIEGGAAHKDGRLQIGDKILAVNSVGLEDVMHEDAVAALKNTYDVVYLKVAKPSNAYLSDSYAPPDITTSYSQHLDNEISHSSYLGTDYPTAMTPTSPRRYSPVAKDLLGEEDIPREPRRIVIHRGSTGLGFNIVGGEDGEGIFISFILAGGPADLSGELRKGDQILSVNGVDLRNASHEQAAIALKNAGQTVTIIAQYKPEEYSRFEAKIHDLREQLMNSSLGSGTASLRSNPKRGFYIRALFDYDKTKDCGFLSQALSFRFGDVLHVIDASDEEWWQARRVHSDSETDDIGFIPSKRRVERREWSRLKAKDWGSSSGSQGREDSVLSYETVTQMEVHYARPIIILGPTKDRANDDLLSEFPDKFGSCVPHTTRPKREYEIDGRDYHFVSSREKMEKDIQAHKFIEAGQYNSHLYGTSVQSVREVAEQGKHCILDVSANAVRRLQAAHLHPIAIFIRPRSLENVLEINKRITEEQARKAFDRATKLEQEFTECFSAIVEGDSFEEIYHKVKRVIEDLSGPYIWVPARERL
Series [13] is described as follows: Drug uptake in mouse Primary neuron at 100 nM measured at 20 mins by inverted confocal microscopic analysis. Format: ADME, cell-based. To be noted: 0.1 µM.
Series [14] has as its system Neuron. The series is described as follows: Neuroprotective activity against NMDA-induced cell death in mouse primary neuron assessed as cell viability at 10 nM preincubated with compound for 1 hrs followed by NMDA addition and measured after 1 hrs by PI staining based analysis relative to control. To be noted: time 2 hrs, read-out: Activity. Format: functional.
Series [15] can be described thus: Toxicity in C57BL/6 mouse assessed as histological changes in kidney at 3 nmol/g, iv administered 3 consecutive days by H and E staining based analysis. The format is organism-based. To be noted: in vivo.
In series [16] the test system is Neuron. The series is described as follows: Cytotoxicity against mouse primary neuron upto 1 uM incubated for 24 hrs. Format: toxicity, cell-based.
Series [17] in a line: Biodistribution in C57BL/6 mouse lung at 3 nmol/g, iv measured after 90 mins post injection using Cy7 labelled compound by fluorescence based analysis. The format is ADME, organism-based. To be noted: in vivo, 1.5 h.
The test system of series [18] is Neuron. The series is described as follows: Neuroprotective activity against Amyloid beta-induced cell death in mouse primary neuron assessed as cell viability preincubated with compound for 1 hrs followed by Amyloid beta addition and measured after 1 hrs by PI staining based analysis relative to control. Particulars: time 2 hrs. The format is functional.
Series [19] can be described thus: Toxicity in C57BL/6 mouse assessed as change in alanine transaminase level at 3 nmol/g, iv administered 3 consecutive days. The format is organism-based. To be noted: in vivo.
Series [20] concerns Neuron. The series is described as follows: Neuroprotective activity against NMDA-induced cell death in mouse primary neuron assessed as reduction in cell viability at 100 nM preincubated with compound for 1 hrs followed by NMDA addition and measured after 1 hrs by PI staining based analysis (reference value: 60.01 +/- 4%). Format: functional. Particulars: time 2 hrs.
Series [21] in a line: Biodistribution in C57BL/6 mouse liver at 3 nmol/g, iv measured after 90 mins post injection using Cy7 labelled compound by fluorescence based analysis. Format: ADME, organism-based. Particulars: in vivo, 1.5 h.
Series [22] concerns Mus musculus. Kind of series: Neuroprotective activity against pilocarpine-induced seizure in C57BL6 mouse assessed as reduction in seizure severity at 30 nmol/g, po pretreated with compound for 1 hrs followed by pilocarpine induction and measured after 2 hrs. Format: functional, organism-based. Particulars: time 3.0 hrs.
Series [23] has as its system Mus musculus. Kind of series: Neuroprotective activity against pilocarpine-induced seizure in C57BL6 mouse assessed as reduction in seizure severity at 3 nmol/g, iv pretreated with compound for 1 hrs followed by pilocarpine induction and measured after 2 hrs. To be noted: time 3.0 hrs. Format: functional, organism-based.
Series [24] can be described thus: Biodistribution in C57BL/6 mouse heart at 3 nmol/g, iv measured after 90 mins post injection using Cy7 labelled compound by fluorescence based analysis. Format: ADME, organism-based. To be noted: in vivo, 1.5 h.
Series [25] relates to Neuron. Kind of series: Neuroprotective activity against Amyloid beta-induced cell death in mouse primary neuron assessed as cell viability at 100 nM preincubated with compound for 1 hrs followed by Amyloid beta addition and measured after 1 hrs by PI staining based analysis. The format is functional. Particulars: time 2.0 hrs.
Series [26] in a line: Toxicity in C57BL/6 mouse assessed as histological changes in liver at 3 nmol/g, iv administered 3 consecutive days by H and E staining based analysis. Format: organism-based. Particulars: in vivo.
Series [27] in a line: Biodistribution in C57BL/6 mouse spleen at 3 nmol/g, iv measured after 90 mins post injection using Cy7 labelled compound by fluorescence based analysis. The format is ADME, organism-based. Particulars: in vivo, 1.5 h.
For series [28], the system named is Neuron. The series is described as follows: Neuroprotective activity against NMDA-induced cell death in mouse primary neuron assessed as cell viability preincubated with compound for 1 hrs followed by NMDA addition and measured after 1 hrs by PI staining based analysis relative to control. Format: functional. Particulars: time 2 hrs.
A short description of series [29]: Biodistribution in C57BL/6 mouse kidney at 3 nmol/g, iv measured after 90 mins post injection using Cy7 labelled compound by fluorescence based analysis. The format is ADME, organism-based. To be noted: in vivo, 1.5 h.
The nature of series [30]: Biodistribution in C57BL/6 mouse brain at 3 nmol/g, iv measured after 90 mins post injection using Cy7 labelled compound by fluorescence based analysis. Format: ADME, organism-based. To be noted: in vivo, 1.5 h.
Series [31] concerns Neuron. Kind of series: Neuroprotective activity against Amyloid beta-induced cell death in mouse primary neuron assessed as cell viability at 0.1 nM preincubated with compound for 1 hrs followed by Amyloid beta addition and measured after 1 hrs by PI staining based analysis. The format is functional.
Series [32] concerns Mus musculus. The series is described as follows: Neuroprotective activity against pilocarpine-induced seizure in C57BL6 mouse assessed as survival rate at 3 nmol/g, iv pretreated with compound for 1 hrs followed by pilocarpine induction and measured after 2 hrs relative to control. The format is functional. To be noted: time 3 hrs.
Series [33] concerns Mus musculus. The series is described as follows: Neuroprotective activity against pilocarpine-induced seizure in C57BL6 mouse assessed as survival rate at 30 nmol/g, po pretreated with compound for 1 hrs followed by pilocarpine induction and measured after 2 hrs relative to control. The format is functional. To be noted: time 3 hrs.
Series [34] can be described thus: Biodistribution in C57BL/6 mouse lung at 3 nmol/g, iv measured after 24 hrs post injection using Cy7 labelled compound by fluorescence based analysis. Particulars: in vivo. Format: ADME, organism-based.

Structures are written as SMILES. pKd: −log10 of the molar value. The source made the active and inactive calls. The rule behind the calls is not given here. Where a SMILES comes first, the peptide text is derived from it. Bridges are numbered along the chain shown (N, C = ends). The star is where a group is joined. X1 = CC[N+]1=C(/C=C/C=C/C=C/C=C2/N(CCCCCC(=O)*)c3ccc(S(=O)(=O)O)cc3C2(C)C)C(C)(C)c2cc(S(=O)(=O)[O-])ccc21

In general, pKd refers to the negative decadic logarithm of the Kd, by convention in mol/L.

Turning to `CC[C@H](C)[C@H](NC(=O)[C@H](CO)NC(=O)[C@H](CO)NC(=O)[C@H](CC(C)C)NC(=O)[C@H](CCCCN)NC(=O)[C@H](CCCNC(=N)N)NC(=O)[C@H](CCCNC(=N)N)NC(=O)[C@H](CCCNC(=N)N)NC(=O)[C@H](CCC(N)=O)NC(=O)[C@H](CCCNC(=N)N)NC(=O)[C@H](CCCNC(=N)N)NC(=O)[C@H](CCCCN)NC(=O)[C@H](CCCCN)NC(=O)[C@H](CCCNC(=N)N)NC(=O)CNC(=O)[C@H](Cc1ccc(O)cc1)NC(=O)CCCCCN1/C(=C/C=C/C=C/C=C/C2=[N+](CC)c3ccc(S(=O)(=O)[O-])cc3C2(C)C)C(C)(C)c2cc(S(=O)(=O)O)ccc21)C(=O)N[C@@H](CCC(=O)O)C(=O)N[C@@H](CO)C(=O)N[C@@H](CC(=O)O)C(=O)N[C@H](C(=O)O)C(C)C` (X1-YGRKKRRQRRRKLSSIESDV-OH), the Drug uptake result is “Active” in series [1]; “Active” in series [2]; “Active” in series [3]; “Not_active” in [4]; “Active” in series [5]; “Not_active” in [6]. Moreover, the Drug uptake result in series [7] and in series [8] was “Active” throughout.
Take `CC[C@H](C)[C@@H]1NC(=O)[C@@H]2CSSC[C@@H]3NC(=O)[C@H](C(C)C)NC(=O)[C@H](CC(=O)O)NC(=O)[C@H](CO)NC(=O)[C@H](CCC(=O)O)NC(=O)[C@H]([C@@H](C)CC)NC(=O)[C@H](CO)NC(=O)[C@H](CO)NC(=O)[C@H](CC(C)C)NC(=O)[C@H](CCCCN)NC(=O)[C@@H]4CSSC[C@H](NC(=O)[C@H](CC(=O)O)NC(=O)[C@H](CO)NC(=O)[C@H](CC(=O)O)NC(=O)[C@H](CCCNC(=N)N)NC(=O)[C@H](CCCNC(=N)N)NC(=O)[C@H](CSSC[C@H](NC1=O)C(=O)N[C@@H](CCCNC(=N)N)C(=O)NCC(=O)N[C@@H](CC(N)=O)C(=O)NCC(=O)N[C@@H](Cc1ccc(O)cc1)C(=O)N4)NC(=O)[C@H](CCCNC(=N)N)NC(=O)[C@H](CCCNC(=N)N)NC(=O)[C@H](CCCNC(=N)N)NC(=O)[C@H](CCCNC(=N)N)NC(=O)[C@H](CC(C)C)NC(=O)[C@H]([C@@H](C)CC)NC(=O)[C@H](CCCNC(=N)N)NC(=O)[C@@H]1CCCN1C3=O)C(=O)N1CCC[C@H]1C(=O)NCC(=O)N[C@@H](C)C(=O)N2` (cyclo(ACICRGNGYCKLSSIESDVCPRILRRRRCRRDSDCPG); disulfide 2-20, 4-29, 10-35): the viability at 0.001 µM in the series with Neuron [9] turned out to be 39.8%. In addition, the Activity result in series [10] is listed as “Non-toxic”; in series [11], “Non-toxic”; in [15] it was “Non-toxic”; in the series with Neuron [16], “Non-toxic”; in the series on Neuron [18], 20.9%; in series [19], “Toxic”. The Activity in the series on Neuron [20] was 8.56%; in the series with Mus musculus [22], “Not active; Slightly Lower Seizure Severity”; in series [26], “Non-toxic”; in the series on Neuron [28], 18.2%. Also, the Drug uptake entry in series [12] is listed as “Not_active”; in series [13], “Active”; in series [17], “Active”; in series [21], “Active”; in series [24], “Active”; in series [27] it was “Active”. For the same compound, the Drug uptake result in series [29], in series [30] and in series [34] was “Active” throughout. Besides, on Disks large homolog 4, the pKd is 5.74. The viability at 0.01 µM in the series with Neuron [14] was found to be 22.4%. The outcome with Mus musculus [23], in the series on Neuron [25] and in the series with Neuron [31] was Active. Further, the Survival amounted to 75% with Mus musculus [32] and 50% in the series on Mus musculus [33].

The record behind these values is ChEMBL document CHEMBL6114943, “Engineered Cyclotide Blocks Neuronal Excitotoxicity” (J Med Chem, 2025).
